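Results reflect a 48-hour exposure of cells in 96-well plates to compound at five concentrations. The concentration for 50% growth inhibition is given as GI50.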 Active and inactive are the calls of the source. Rule as the data show it: active = GI50 up to about 1.1 µM and inactive = higher.

This is an account of results in ChEMBL document CHEMBL1201862, “PubChem BioAssay data set” (2004).

Experiment in all cases: DTP human tumour cell line panel, 48 h
Experiment [1] has as its system A498.
Experiment [2] relates to A549.
The test system of experiment [3] is CCRF-CEM.
Experiment [4] deals with COLO 205.
Experiment [5] has as its system HCT-116.
Experiment [6] relates to HCT-15.
Experiment [7] relates to K562.
Experiment [8] has as its system LOX IMVI.
For experiment [9], the system named is M14.
For experiment [10], the system named is MOLT-4.
For experiment [11], the system named is Malme-3M.
In experiment [12] the test system is NCI-H226.
Experiment [13] concerns NCI-H460.
The subject of experiment [14] is SF-295.
In experiment [15] the test system is SF-539.
In experiment [16] the test system is SK-MEL-28.
In experiment [17] the test system is SK-OV-3.
For experiment [18], the system named is SNB-75.
Experiment [19] concerns U-251.
The subject of experiment [20] is UACC-257.

Turning to `Cc1cccc(C)c1NC(=O)CCc1nnc2s/c(=C\c3ccc(N(C)C)cc3)c(=O)n12`, the GI50 (as a rule, the concentration at which growth is held to half of that of the control) in experiment [1] is > 100 µM (inactive); in experiment [2], > 100 µM (inactive); in experiment [3] it was 38.6 µM (inactive); in experiment [4], > 100 µM (inactive); in experiment [5] it was > 100 µM (inactive); in [6], over 100 µM. Besides, the GI50 in experiment [7] was 53.3 µM (inactive); in experiment [8], > 100 µM (inactive); in experiment [9] it was > 100 µM (inactive); in experiment [10], 53.3 µM (inactive); in experiment [11], > 100 µM (inactive); in [12], > 100 µM (inactive). The GI50 is > 100 µM (inactive) in [13]; 56.1 µM (inactive) in [14]; > 100 µM (inactive) in experiment [15]; > 100 µM (inactive) in experiment [16]; > 100 µM (inactive) in experiment [17]; > 100 µM (inactive) in [18]. Further, the GI50 in [19] and in experiment [20] was > 100 µM (inactive) in each case.
On to `CCOC(=O)C(=C=C=C(c1ccccc1)c1ccccc1)C(=O)OCC`, for which the GI50 is 48.4 µM (inactive) in experiment [1]; 25 µM (inactive) in experiment [2]; 3.52 µM (inactive) in experiment [3]; 16.7 µM (inactive) in experiment [4]; 18.5 µM (inactive) in experiment [5]; 19.6 µM in experiment [6]. Further, the GI50 in [7] was 11.3 µM (inactive); in [8] it was 17.1 µM (inactive); in [9] it was 20.6 µM (inactive); in experiment [10] it was 9.08 µM (inactive); in [11], 19.8 µM (inactive); in [12], 15.5 µM (inactive). Besides, the GI50 in experiment [13] is 22.8 µM (inactive); in experiment [14], 16.3 µM (inactive); in experiment [15] it was 18.4 µM (inactive); in experiment [16] it was 17.4 µM (inactive); in experiment [17], 23.2 µM (inactive); in [18] it was 3.87 µM (inactive). Moreover, the GI50 in experiment [19] was 17.3 µM (inactive); in experiment [20] it was 16.8 µM (inactive).
For the compound `Brc1nc2c3ccccc3ncn2c1Br`, the GI50 in experiment [1] is 43.5 µM (inactive); in experiment [2], 38.8 µM (inactive); in [3] it was 25.5 µM (inactive); in [4], 16.3 µM (inactive); in experiment [5], 37.3 µM (inactive); in experiment [6] it was 35.3 µM. Besides, the GI50 was 31.3 µM (inactive) in experiment [7]; 19 µM (inactive) in [8]; 38.5 µM (inactive) in [9]; 25.3 µM (inactive) in experiment [10]; 13.3 µM (inactive) in experiment [11]; 26.4 µM (inactive) in [12]. For the same compound, the GI50 is 34.2 µM (inactive) in [13]; 34.4 µM (inactive) in experiment [14]; 49.9 µM (inactive) in [15]; 82 µM (inactive) in [16]; 38.5 µM (inactive) in [17]; 20.1 µM (inactive) in experiment [18]. The GI50 was 28.8 µM (inactive) in experiment [19] and 33 µM (inactive) in experiment [20].
`C/C1=C\C=C(\C(C)C)CC/C(C(=O)O)=C\CC/C(C)=C/CC1` [NEOCROTOCEMBRANEIC ACID]: the GI50 was 17.6 µM (inactive) in experiment [1]; 30.2 µM (inactive) in experiment [2]; 19.5 µM (inactive) in experiment [3]; 23.4 µM (inactive) in [4]; 15.9 µM (inactive) in [5]; 21.4 µM in [6]. Besides, the GI50 in experiment [7] was 26.1 µM (inactive); in experiment [8], 20.5 µM (inactive); in [9], 29 µM (inactive); in [10], 19.1 µM (inactive); in [11], 23.2 µM (inactive); in experiment [12], 20.9 µM (inactive). The GI50 in experiment [13] is 17.7 µM (inactive); in experiment [14], 20 µM (inactive); in experiment [15], 18.5 µM (inactive); in experiment [16], 24.6 µM (inactive); in experiment [17] it was 27.6 µM (inactive); in experiment [18], 33.7 µM (inactive). Further, the GI50 in [19] was 16.9 µM (inactive); in experiment [20], 22.5 µM (inactive).
Regarding `O=C1OC(c2cccc(C(F)(F)F)c2)(c2cccc(C(F)(F)F)c2)c2ccc3ccccc3c21`, the GI50 was > 10 µM (inactive) in experiment [1]; > 10 µM (inactive) in experiment [2]; 7.85 µM (inactive) in experiment [3]; > 10 µM (inactive) in experiment [4]; 8.45 µM (inactive) in experiment [5]; 9.25 µM in experiment [6]. The GI50 in [7] is 8.04 µM (inactive); in [8], > 10 µM (inactive); in [9], > 10 µM (inactive); in [10], 4.66 µM (inactive); in experiment [11], 4.79 µM (inactive); in experiment [12], 85.5 µM (inactive). Besides, the GI50 in experiment [13] was > 10 µM (inactive); in experiment [14], 15.2 µM (inactive); in experiment [15], > 100 µM (inactive); in experiment [16] it was > 10 µM (inactive); in experiment [17], > 10 µM (inactive); in [18], > 10 µM (inactive). For the same compound, the GI50 in [19] was 8.39 µM (inactive); in experiment [20], 13.1 µM (inactive).
Turning to `COc1cc(OC)c(OC)cc1/C=C\c1ccnc2ccccc12`, the GI50 is 0.522 µM (active) in experiment [1]; 0.849 µM (active) in experiment [2]; 1.4 µM (inactive) in [3]; 0.463 µM (active) in [4]; 0.574 µM (active) in experiment [5]; 0.437 µM in experiment [6]. The GI50 was 0.282 µM (active) in [7]; 0.61 µM (active) in [8]; 0.574 µM (active) in [9]; 0.575 µM (active) in [10]; 0.7 µM (active) in experiment [11]; 0.977 µM (active) in experiment [12]. Further, the GI50 in [13] was 0.555 µM (active); in experiment [14], 0.48 µM (active); in experiment [15], 0.394 µM (active); in experiment [16] it was 0.782 µM (active); in experiment [17] it was 0.465 µM (active); in [18], 0.335 µM (active). The values for the 50% growth inhibitory concentration (GI50) in experiment [19] and in experiment [20] were 0.628 µM (active) and 4.88 µM (inactive), respectively.
Take `COC(=O)NNc1c([N+](=O)[O-])cnn(-c2ccccc2)c1=O`: the GI50 in experiment [1] is 27.3 µM (inactive); in experiment [2], 12.4 µM (inactive); in experiment [3] it was 0.302 µM (active); in [4], 2.11 µM (inactive); in [5], 1.78 µM (inactive); in experiment [6] it was 2.45 µM. For the same compound, the GI50 is 1.04 µM (active) in experiment [7]; 1.66 µM (inactive) in experiment [8]; 1.8 µM (inactive) in [9]; 0.815 µM (active) in experiment [10]; 2.47 µM (inactive) in experiment [11]; 4.19 µM (inactive) in experiment [12]. In addition, the GI50 in experiment [13] is 3.96 µM (inactive); in experiment [14] it was 3.46 µM (inactive); in experiment [15] it was 3.29 µM (inactive); in experiment [16] it was 3.83 µM (inactive); in [17], 9.71 µM (inactive); in [18], 7.48 µM (inactive). Also, the GI50 in experiment [19] is 2.62 µM (inactive); in experiment [20], 2.51 µM (inactive).
For `Cn1nc2ccc3nccc(N(CCO)CCO)c3c2n1`, the GI50 in experiment [1] was > 100 µM (inactive); in [2], > 100 µM (inactive); in experiment [3], > 100 µM (inactive); in [4], > 100 µM (inactive); in [5], > 100 µM (inactive); in experiment [6] it was over 100 µM. Further, the GI50 in experiment [7], in experiment [8], in experiment [9], in experiment [10], in experiment [11] and in [12] was > 100 µM (inactive) each time. Also, the GI50 in experiment [13], in experiment [14], in experiment [15], in experiment [16], in [17] and in experiment [18] was > 100 µM (inactive) in each case. Further, the GI50 in experiment [19] and in experiment [20] was > 100 µM (inactive) in each case.
`Cc1cc(O)c2c(c1)C(=O)c1c(c(O)cc(O)c1-c1c(O)cc(O)c3c1C(=O)c1cc(C)cc(O)c1C3=O)C2=O` [SKYRIN]: the GI50 in experiment [1] was 14.4 µM (inactive); in [2] it was 8.87 µM (inactive); in [3] it was 7.6 µM (inactive); in experiment [4] it was 24.8 µM (inactive); in experiment [5] it was 8.99 µM (inactive); in experiment [6], 8.61 µM. Also, the GI50 in [7] was 7.87 µM (inactive); in experiment [8] it was 12.9 µM (inactive); in experiment [10], 8.59 µM (inactive); in [11], 15 µM (inactive); in experiment [12], 3.07 µM (inactive); in experiment [13], 9.08 µM (inactive). The GI50 was 9.25 µM (inactive) in [14]; 10.6 µM (inactive) in [15]; 11.7 µM (inactive) in experiment [16]; 32.4 µM (inactive) in experiment [17]; 15.8 µM (inactive) in [18]; 8.36 µM (inactive) in experiment [19]. In [20], the GI50 was 17.5 µM (inactive).
Consider `CC(=O)O[C@H]1C=CC(=O)C(C)CC1C` (stereo partly drawn), for which the GI50 in experiment [1] is > 100 µM (inactive); in [2], > 100 µM (inactive); in experiment [3], 60.1 µM (inactive); in experiment [4], 55.8 µM (inactive); in [5], 44.8 µM (inactive); in experiment [7], > 100 µM (inactive). Besides, the GI50 in experiment [8] was 45.8 µM (inactive); in experiment [9], > 100 µM (inactive); in experiment [10], > 100 µM (inactive); in experiment [11] it was > 100 µM (inactive); in [12], > 100 µM (inactive); in experiment [13] it was > 100 µM (inactive). For the same compound, the GI50 in experiment [14], in [15], in [16], in experiment [17], in [18] and in experiment [19] was > 100 µM (inactive) throughout. For the same compound, in experiment [20], the GI50 is > 100 µM (inactive).
